Read-outs that look alike come from different tables or passages of the source. Starred links: 1 amine or outer side, 2 acyl side, 3 side chain; linkers in the order of their positions; H or OH if unused. Positions of bridges follow the written chain, without caps; N, C: chain ends. Non-standard residues stand in square brackets, D forms with d. Chains are numbered I, II in the order given. X1 = O=C(CCOCCOCCOCCN(CCOCCOCCOCCn1cc(CCC(=O)[*:2])nn1)CCOCCOCCOCCn1cc(CCC(=O)[*:3])nn1)[*:1]; TATA = O=C(CC[*:1])N1CN(C(=O)CC[*:2])CN(C(=O)CC[*:3])C1; Dip = N[C@H](C(=O)O)C(c1ccccc1)c1ccccc1; Hyp = O=C(O)[C@@H]1C[C@@H](O)CN1; hArg = N=C(N)NCCCC[C@H](N)C(=O)O; tBuAla = CC(C)(C)C[C@H](N)C(=O)O; Nle = CCCC[C@H](N)C(=O)O
Assays:
[1] = Pharmacokinetics in SD rats; format: in vivo; details: rat, in vivo, IV Bolus
Protocol: (§1) Male SD Rats were dosed with each heterotandem Bicycle peptide complex formulated in 25 mM Histidine HCl, 10% sucrose pH 7 by IV bolus or IV infusion (15 minutes). Serial bleeding (about 80 μL blood/time point) was performed via submandibular or saphenous vein at each time point. All blood samples were immediately transferred into prechilled microcentrifuge tubes containing 2 μL K2-EDTA (0.5M) as anti-coagulant and placed on wet ice. Blood samples were immediately processed for plasma by centrifugation at approximately 4° C., 3000 g. The precipitant including internal standard was immediately added into the plasma, mixed well and centrifuged at 12,000 rpm, 4° C. for 10 minutes. The supernatant was transferred into pre-labeled polypropylene microcentrifuge tubes, and then quick-frozen over dry ice. The samples were stored at […] or below as needed until analysis. 7.5 μL of the supernatant samples were directly injected for LC-MS/MS analysis using an Orbitrap Q Exactive in positive ion mode to determine the concentrations of analyte. Plasma concentration versus time data were analyzed by non-compartmental approaches using the Phoenix WinNonlin 6.3 software program. C0, CI, Vdss, T½, AUC(0-last), AUC(0-inf), MRT(0-last), MRT(0-inf) and graphs of plasma concentration versus time profile were reported.

[2] = Pharmacokinetics in cynomolgus monkey; format: in vivo; details: in vivo, IV infusion (15 min), 1 mg/kg
Protocol: Serial bleeding (about 1.2 ml blood/time point) was performed from a peripheral vessel from restrained, non-sedated animals at each time point into a commercially available tube containing Potassium (K2) EDTA*2H2O (0.85-1.15 mg) on wet ice and processed for plasma. Samples were centrifuged (3,000×g for 10 minutes at 2 to 8° C.) immediately after collection. 0.1 mL plasma was transferred into labelled polypropylene micro-centrifuge tubes. 5-fold of the precipitant including internal standard 100 ng/mL Labetalol & 100 ng/mL dexamethasone & 100 ng/mL tolbutamide & 100 ng/mL Verapamil & 100 ng/mL Glyburide & 100 ng/mL Celecoxib in MeOH was immediately added into the plasma, mixed well and centrifuged at 12,000 rpm for 10 minutes at 2 to 8° C. Samples of supernatant were transferred into the pre-labeled polypropylene microcentrifuge tubes, and frozen over dry ice. The samples were stored at −60° C. or below until LC-MS/MS analysis. An aliquot of 40 μL calibration standard, quality control, single blank and double blank samples were added to the 1.5 mL tube. Each sample (except the double blank) was quenched with 200 μL IS1 respectively (double blank sample was quenched with 200 μL MeOH with 0.5% tritonX-100), and then the mixture was vortex-mixed well (at least 15 s) with vortexer and centrifuged for 15 min at 12000 g, 4° C. A 10 μL supernatant was injected for LC-MS/MS analysis using an Orbitrap Q Exactive in positive ion mode to determine the concentrations of analyte. Plasma concentration versus time data were analyzed by non-compartmental approaches using the Phoenix WinNonlin 6.3 software program. C0, CI, Vdss, T½, AUC(0-last), AUC(0-inf), MRT(0-last), MRT(0-inf) and graphs of plasma concentration versus time profile were reported.

[3] = Pharmacokinetics in CD1 mice; format: in vivo, CD-1 mice; details: mouse, in vivo; mice, after IP injection; read-out: circulating plasma half-life (converted)
Protocol: as §1, with “Serial” for “Male SD Rats were dosed with each heterotandem Bicycle peptide complex formulated in 25 mM Histidine HCl, 10% sucrose pH 7 by IV bolus or IV infusion (15 minutes). Serial”

human PBMCs = test: Human PBMC co-culture cytokine secretion assay with EphA2-expressing tumor cells (MC38, HT-1080, HT29); format: cell-based
Protocol: […] MC38 were cultured in Dulbecco's Modified Eagle Medium supplemented with 10% heat inactivated Fetal Bovine Serum (FBS), 1× Penicillin/Streptomycin, 10 mM HEPES, and 2 mM L-Glutamine (referred to as R10 medium). Frozen PBMCs from healthy human donors were thawed and washed once in room temperature PBS with benzonase, and then resuspended in RPMI supplemented with 10% heat inactivated Fetal Bovine Serum (FBS), 1× Penicillin/Streptomycin, 10 mM HEPES, and 2 mM L-Glutamine (herein referred to as R10 medium). 100 μl of PBMCs (1,000,000 PBMCs/ml) and 100 μl of tumor cells (100,000 tumor cells/ml) (Effector:Target cell ratio (E:T) 10:1) were plated in each well of a 96 well flat bottom plate for the co-culture assay. 100 ng/ml of soluble anti-CD3 mAb (clone OKT3) was added to the culture on day 0 to stimulate human PBMCs. Test, control compounds, or vehicle controls were diluted in R10 media and 50 μL was added to respective wells to bring the final volume per well to 250 μL. Plates were covered with a breathable film and incubated in a humidified chamber at 37° C. with 5% CO2 for two days. […] Briefly, the standards and samples were added to a black 96 well plate. Microparticle cocktail (provided in Luminex kit, R&D Systems) was added and shaken for 2 hours at room temperature. The plate was washed 3 times using a magnetic holder. Biotin cocktail was then added to the plate and shaken for 1 hour at RT. The plate was washed 3 times using a magnetic holder. Streptavidin cocktail was added to the plate and shaken for 30 minutes at RT. The plates were washed 3 times using a magnetic holder, resuspended in 100 μL of wash buffer, shaken for 2 minutes at RT, and read using the Luminex 2000. Raw data were analyzed using built-in Luminex software to generate standard curves and interpolate protein concentrations, all other data analyses and graphing were performed using Excel and Prism software. Data represents one study with three independent donor PBMCs tested in experimental duplicates.
Similarly, PBMCs from healthy donors were co-cultured with EphA2 expressing cancer cells (MC38 and HT-1080) at a ratio of 5:1 in presence of anti-CD3 and BCY13272. […]

CD137 [4] = molecular target: T1, CD137 (Homo sapiens, UniProt Q07011); test: CD137 reporter assay (Promega, Jurkat cells) in co-culture with EphA2-expressing tumor cells (A549, PC3, HT29); format: cell-based; set-up: host or cells: Jurkat reporter cells
Summary of the method: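 Promega CD137 luciferase reporter Jurkat cells co-cultured with tumor cells (RKO for PD-L1; A549, PC3, HT29 for EphA2) and serially diluted test articles in RPMI + 1% FBS, 6 h at 37° C. Bio-Glo luminescence as fold change over cells alone; log(agonist)-response fit gives EC50 (nM) and max fold induction.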

CD137 [5] = molecular target: T1, CD137; test: CD137 reporter assay (Promega CD137 luciferase reporter, Jurkat cells) in co-culture with Nectin-4-expressing tumor cells; format: cell-based; set-up: host or cells: Jurkat reporter cells; details: co-culture with HT1376, Table 2A

T1 sequence (Q07011 24-255): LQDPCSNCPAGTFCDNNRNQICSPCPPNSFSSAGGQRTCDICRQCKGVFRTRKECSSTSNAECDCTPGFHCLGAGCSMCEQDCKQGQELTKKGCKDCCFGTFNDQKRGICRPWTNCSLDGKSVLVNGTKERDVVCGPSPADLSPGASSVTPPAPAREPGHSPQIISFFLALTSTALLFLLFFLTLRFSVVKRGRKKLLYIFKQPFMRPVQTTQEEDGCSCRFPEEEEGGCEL

Work on “I: A[hArg]DC[Hyp]LVNPLCLHP[dD]W[hArg]C-NH2 / II: Ac-C[tBuAla]PE[dK]PYCFADPY[Nle]CA-NH2 / III: Ac-C[tBuAla]PE[dK]PYCFADPY[Nle]CA-NH2 (linker I:4-I:11-I:18, II:1-II:8-II:15, III:1-III:8-III:15 via TATA; linker I:N-II:5-III:5 via X1) [BCY12491]” yielded a half-life ([1]; iv, read-out: T1/2 (converted)) of 1.3 h, a clearance ([1]; read-out: Clp) of 20 mL/min/kg and a Vd ([1]; read-out: Vdss) of 1.6 L/kg. The clearance ([2]; read-out: Clp) was 3 mL/min/kg, the half-life ([2]; read-out: T1/2 (converted)) was 3.2 h and the Vd ([2]; read-out: Vdss) was 0.36 L/kg. The half-life [3] was 2.5 h, the EC50 (human PBMCs; MC38 co-culture, donor 228711, read-out: EC50 of IFN-γ cytokine secretion) was 85 pM and the EC50 (human PBMCs; MC38 co-culture, donor 228769, read-out: EC50 of IFN-γ cytokine secretion) was 34 pM.
In the case of “I: A[hArg]DC[Hyp]LVNPLCL[Dip]P[dD]WTC-NH2 / II: Ac-C[tBuAla]PE[dK]PYCFADPY[Nle]CA-NH2 / III: Ac-C[tBuAla]PE[dK]PYCFADPY[Nle]CA-NH2 (linker I:4-I:11-I:18, II:1-II:8-II:15, III:1-III:8-III:15 via TATA; linker I:N-II:5-III:5 via X1) [BCY13047]”, the EC50 (human PBMCs; human PBMC-MC38 co-culture, Donor 1, 48 h incubation, read-out: Donor 1 EC50 of IFNγ secretion) is reported as 310 pM, the EC50 (human PBMCs; human PBMC-MC38 co-culture, Donor 2, 48 h incubation, read-out: Donor 2 EC50 of IFNγ secretion) is reported as 300 pM and the “Emax (fold induction over background)” value (CD137 [4]; CD137 reporter coculture assay with PC3 tumor cells) is reported as 46.43. For the same molecule, the EC50 (CD137 [4]; EC50, CD137 reporter coculture assay with PC3 tumor cells) was 70 pM.
In the case of `CCCC[C@@H]1NC(=O)[C@H](Cc2ccc(O)cc2)NC(=O)[C@@H]2CCCN2C(=O)[C@H](CC(=O)O)NC(=O)[C@H](C)NC(=O)[C@H](Cc2ccccc2)NC(=O)[C@@H]2CSCCC(=O)N3CN(CN(C3)C(=O)CCSC[C@@H](C(=O)N[C@@H](C)C(N)=O)NC1=O)C(=O)CCSC[C@H](NC(C)=O)C(=O)N[C@@H](CC(C)(C)C)C(=O)N1CCC[C@H]1C(=O)N[C@@H](CCC(=O)O)C(=O)N[C@H](CCCCNC(=O)CCc1cn(CCOCCOCCOCCN(CCOCCOCCOCCC(=O)N[C@H]3CSCCC(=O)N4CN5CN(C4)C(=O)CCSC[C@H](NC(=O)[C@@H](CC(=O)O)NC(=O)[C@H](Cc4cccc6ccccc46)NC(=O)[C@@H]4CCCN4C3=O)C(=O)N[C@@H](CCSC)C(=O)N[C@@H](CCCCNC(=N)N)C(=O)N[C@@H](CC(=O)O)C(=O)N[C@@H](Cc3c[nH]c4ccccc34)C(=O)N[C@@H](CO)C(=O)N[C@@H]([C@@H](C)O)C(=O)N3CCC[C@H]3C(=O)N3C[C@H](O)C[C@H]3C(=O)N[C@@H](Cc3c[nH]c4ccccc34)C(=O)N[C@H](C(N)=O)CSCCC5=O)CCOCCOCCOCCn3cc(CCC(=O)NCCCC[C@H]4NC(=O)[C@H](CCC(=O)O)NC(=O)[C@@H]5CCCN5C(=O)[C@H](CC(C)(C)C)NC(=O)[C@@H](NC(C)=O)CSCCC(=O)N5CN6CN(C5)C(=O)CCSC[C@H](NC(=O)[C@H](Cc5ccc(O)cc5)NC(=O)[C@@H]5CCCN5C4=O)C(=O)N[C@@H](Cc4ccccc4)C(=O)N[C@@H](C)C(=O)N[C@@H](CC(=O)O)C(=O)N4CCC[C@H]4C(=O)N[C@@H](Cc4ccc(O)cc4)C(=O)N[C@@H](CCCC)C(=O)N[C@H](C(=O)N[C@@H](CCCCNC(=O)c4ccc(-c5c7ccc(=N)c(S(=O)(=O)O)c-7oc7c(S(=O)(=O)O)c(N)ccc57)c(C(=O)O)c4)C(N)=O)CSCCC6=O)nn3)nn1)C(=O)N1CCC[C@H]1C(=O)N[C@@H](Cc1ccc(O)cc1)C(=O)N2` [BCY13583], the Emax (CD137 [5]) is reported as 63 fold induction over background.
Work on `CCCC[C@@H]1NC(=O)[C@H](Cc2ccc(O)cc2)NC(=O)[C@@H]2CCCN2C(=O)[C@H](CC(=O)O)NC(=O)[C@H](C)NC(=O)[C@H](Cc2ccccc2)NC(=O)[C@@H]2CSCCC(=O)N3CN(CN(C3)C(=O)CCSC[C@@H](C(=O)N[C@@H](C)C(N)=O)NC1=O)C(=O)CCSC[C@H](NC(C)=O)C(=O)N[C@@H](CC(C)(C)C)C(=O)N1CCC[C@H]1C(=O)N[C@@H](CCC(=O)O)C(=O)N[C@H](CCCCNC(=O)CCc1cn(CCOCCOCCOCCOCCOCCOCCOCCOCCOCCOCCNC(=O)c3cc(C(=O)NCCOCCOCCOCCOCCOCCOCCOCCOCCOCCOCCn4cc(CCC(=O)NCCCC[C@H]5NC(=O)[C@H](CCC(=O)O)NC(=O)[C@@H]6CCCN6C(=O)[C@H](CC(C)(C)C)NC(=O)[C@@H](NC(C)=O)CSCCC(=O)N6CN7CN(C6)C(=O)CCSC[C@H](NC(=O)[C@H](Cc6ccc(O)cc6)NC(=O)[C@@H]6CCCN6C5=O)C(=O)N[C@@H](Cc5ccccc5)C(=O)N[C@@H](C)C(=O)N[C@@H](CC(=O)O)C(=O)N5CCC[C@H]5C(=O)N[C@@H](Cc5ccc(O)cc5)C(=O)N[C@@H](CCCC)C(=O)N[C@H](C(=O)N[C@@H](C)C(N)=O)CSCCC7=O)nn4)cc(C(=O)NCCOCCOCCOCCOCCOCCOCCOCCOCCOCCOCCn4cc(CCC(=O)N[C@H]5CSCCC(=O)N6CN7CN(C6)C(=O)CCSC[C@H](NC(=O)[C@@H](CC(=O)O)NC(=O)[C@H](Cc6cccc8ccccc68)NC(=O)[C@@H]6CCCN6C5=O)C(=O)N[C@@H](CCSC)C(=O)N[C@@H](CCCCNC(=N)N)C(=O)N[C@@H](CC(=O)O)C(=O)N[C@@H](Cc5c[nH]c6ccccc56)C(=O)N[C@@H](CO)C(=O)N[C@@H]([C@@H](C)O)C(=O)N5CCC[C@H]5C(=O)N5C[C@H](O)C[C@H]5C(=O)N[C@@H](Cc5c[nH]c6ccccc56)C(=O)N[C@H](C(N)=O)CSCCC7=O)nn4)c3)nn1)C(=O)N1CCC[C@H]1C(=O)N[C@@H](Cc1ccc(O)cc1)C(=O)N2` [BCY10918] yielded an EC50 (CD137 [5]; EC50 (nM)) of 0.16 nM.
